In patent US20250228984A1, “Metallophore-Radionuclide Complex as Nuclear Imaging Contrast Agents” (priority 2024, published 2025):

Experiments:
[1] = test system: FoxA expressing P. aeruginosa; assay: PET/CT imaging and ex vivo biodistribution of Ga-68 DFO, P. aeruginosa; assay type: in vivo, Pseudomonas aeruginosa
[2] = test system: non-FoxA expressing organisms; assay: PET/CT imaging and ex vivo biodistribution of Ga-68 DFO, non-FoxA organisms; assay type: in vivo

In the case of `CC(=O)N([O-])CCCCCNC(=O)CCC(=O)N([O-])CCCCCNC(=O)CCC(=O)N([O-])CCCCCN.[68Ga+3]` [Ga-68 DFO, gallium-68 bound DFO], the “uptake of probe in the lungs (in vivo imaging and ex vivo biodistribution)” value [1] is reported as “increased uptake” and the “uptake of probe in the lungs (in vivo imaging and ex vivo biodistribution)” value [2] is reported as “limited uptake”.
